Earlier results in patent publication US4081530A, “Extended chain derivatives of somatostatin” (Ayerst, McKenna & Harrison Limited, priority 1975, dated 1978).

Conditions: somatostatin-like activity

[Ala^3,14 ]-somatostatin (AGAKNFFWKTFTSA; Somatostatin-14; UniProt P61278 103-116, looked up, variant C3A C14A) [somatostatin analog synthesised by solid phase methods (Sarantakis et al.)]
activity as share of somatostatin's potency: about 0.01%
